Results: the supplement of paper PMC9663587

Key:
Neratinib/HKI272 = compound: CCOc1cc2ncc(C#N)c(Nc3ccc(OCc4ccccn4)c(Cl)c3)c2cc1NC(=O)/C=C/CN(C)C [Neratinib/HKI272]; assay: increase in dead-cell fraction, 72 h; higher = more death;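 also: breast cancer cell lines in 384-well plates, stained with Hoechst plus LIVE/DEAD far red dye and imaged, cells above an LDR intensity threshold counted dead, Hoechst-negative corpses included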
[1] = compound: CCN1CCN(Cc2ccc(Nc3ncc(F)c(-c4cc(F)c5nc(C)n(C(C)C)c5c4)n3)nc2)CC1; assay: as above
BSJ-03-123 = compound: CC(=O)c1c(C)c2cnc(Nc3ccc(N4CCN(CCOCCOCCOCCNC(=O)COc5cccc6c5C(=O)N(C5CCC(=O)NC5=O)C6=O)CC4)cn3)nc2n(C2CCCC2)c1=O [BSJ-03-123]; assay: as above
Flavopiridol = compound: CN1CC[C@H](c2c(O)cc(O)c3c(=O)cc(-c4ccccc4Cl)oc23)[C@H](O)C1 [Flavopiridol]; assay: as above
THZ531 = compound: CN(C)C/C=C/C(=O)Nc1ccc(C(=O)N2CCC[C@@H](Nc3ncc(Cl)c(-c4c[nH]c5ccccc45)n3)C2)cc1 [THZ531]; assay: as above
THZ1 = compound: CN(C)C/C=C/C(=O)Nc1ccc(C(=O)Nc2cccc(Nc3ncc(Cl)c(-c4c[nH]c5ccccc45)n3)c2)cc1 [THZ1]; assay: as above
LEE011/Ribociclib = compound: CN(C)C(=O)c1cc2cnc(Nc3ccc(N4CCNCC4)cn3)nc2n1C1CCCC1 [LEE011/Ribociclib]; assay: as above
YKL-5-124 = compound: C=CC(=O)Nc1ccc(C(=O)Nc2[nH]nc3c2CN(C(=O)N[C@H](CN(C)C)c2ccccc2)C3(C)C)cc1 [YKL-5-124]; assay: as above
[2] = compound: CC(=O)c1c(C)c2cnc(Nc3ccc(N4CCNCC4)cn3)nc2n(C2CCCC2)c1=O; assay: as above
[3] = compound: CCc1cnn2c(NCc3ccc[n+]([O-])c3)cc(N3CCCC[C@H]3CCO)nc12; assay: as above
[4] = compound: CCCCOc1c(C(=O)c2c(F)cc(C)cc2F)c[nH]c2nncc1-2
Saracatinib/AZD0530 = compound: CN1CCN(CCOc2cc(OC3CCOCC3)c3c(Nc4c(Cl)ccc5c4OCO5)ncnc3c2)CC1 [Saracatinib/AZD0530]
Luminespib/NVP-AUY922 = compound: CCNC(=O)c1noc(-c2cc(C(C)C)c(O)cc2O)c1-c1ccc(CN2CCOCC2)cc1 [Luminespib/NVP-AUY922]
BSJ-01-175 = compound: CN(C)C/C=C/C(=O)Nc1ccc(O[C@@H]2CCC[C@@H](Nc3ncc(Cl)c(-c4c[nH]c5ccccc45)n3)C2)cc1 [BSJ-01-175]
THZ-P1-2 = compound: CN(C)C/C=C/C(=O)NC1=CC=C(C=C1)C(=O)NC2=CC=CC(=C2)NC3=NC=NC(=C3)C4=CNC5=CC=CC=C54 [THZ-P1-2]
Ceritinib/LDK378 = compound: Cc1cc(Nc2ncc(Cl)c(Nc3ccccc3S(=O)(=O)C(C)C)n2)c(OC(C)C)cc1C1CCNCC1 [Ceritinib/LDK378]
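For GR50, 72 h in this document: breast cancer and non-malignant breast epithelial cell lines, Deep Dye Drop or Dye Drop imaging, nine half-log doses, GR normalized to time-zero plates and DMSO-only controls.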

## HCC1806
Neratinib/HKI272; 0.0003162 µM
  increase in dead-cell fraction: 0.0048
Neratinib/HKI272; 0.001 µM
  increase in dead-cell fraction: -0.0002
Neratinib/HKI272; 0.003162 µM
  increase in dead-cell fraction: 0.0056
Neratinib/HKI272; 0.01 µM
  increase in dead-cell fraction: 0.015
Neratinib/HKI272; 0.03162 µM
  increase in dead-cell fraction: 0.0267
Neratinib/HKI272; 0.1 µM
  increase in dead-cell fraction: 0.0441
Neratinib/HKI272; 0.3162 µM
  increase in dead-cell fraction: 0.065
Neratinib/HKI272; 1 µM
  increase in dead-cell fraction: 0.0775
Neratinib/HKI272; 3.162 µM
  increase in dead-cell fraction: 0.435
[1]; 0.001 µM
  increase in dead-cell fraction: 0.0032
[1]; 0.003162 µM
  increase in dead-cell fraction: -0.005
[1]; 0.01 µM
  increase in dead-cell fraction: 0.0052
[1]; 0.03162 µM
  increase in dead-cell fraction: 0.0175
[1]; 0.1 µM
  increase in dead-cell fraction: 0.0076
[1]; 0.3162 µM
  increase in dead-cell fraction: 0.0172
[1]; 1 µM
  increase in dead-cell fraction: 0.043
[1]; 3.162 µM
  increase in dead-cell fraction: 0.154
[1]; 10 µM
  increase in dead-cell fraction: 0.698
BSJ-03-123; 0.001 µM
  increase in dead-cell fraction: 0.0017
BSJ-03-123; 0.003162 µM
  increase in dead-cell fraction: 0.0008
BSJ-03-123; 0.01 µM
  increase in dead-cell fraction: -0.0016
BSJ-03-123; 0.03162 µM
  increase in dead-cell fraction: -0.0015
BSJ-03-123; 0.1 µM
  increase in dead-cell fraction: 0.0039
BSJ-03-123; 0.3162 µM
  increase in dead-cell fraction: 0.0061
BSJ-03-123; 1 µM
  increase in dead-cell fraction: 0.0075
BSJ-03-123; 3.162 µM
  increase in dead-cell fraction: 0.0235
BSJ-03-123; 10 µM
  increase in dead-cell fraction: 0.152
Flavopiridol; 0.0001 µM
  increase in dead-cell fraction: -0.0011
Flavopiridol; 0.0003162 µM
  increase in dead-cell fraction: -0.0029
Flavopiridol; 0.001 µM
  increase in dead-cell fraction: 0.003
Flavopiridol; 0.003162 µM
  increase in dead-cell fraction: -0.001
Flavopiridol; 0.01 µM
  increase in dead-cell fraction: 0.0029
Flavopiridol; 0.03162 µM
  increase in dead-cell fraction: 0.005
Flavopiridol; 0.1 µM
  increase in dead-cell fraction: 0.019
Flavopiridol; 0.3162 µM
  increase in dead-cell fraction: 0.0572
Flavopiridol; 1 µM
  increase in dead-cell fraction: 0.71
THZ531; 0.0001 µM
  increase in dead-cell fraction: 0.0006
THZ531; 0.0003162 µM
  increase in dead-cell fraction: 0.001
THZ531; 0.001 µM
  increase in dead-cell fraction: 0.0004
THZ531; 0.003162 µM
  increase in dead-cell fraction: -0.0016
THZ531; 0.01 µM
  increase in dead-cell fraction: -0.0015
THZ531; 0.03162 µM
  increase in dead-cell fraction: 0.0016
THZ531; 0.1 µM
  increase in dead-cell fraction: 0.0014
THZ531; 0.3162 µM
  increase in dead-cell fraction: 0.0179
THZ531; 1 µM
  increase in dead-cell fraction: 0.586
THZ1; 0.0001 µM
  increase in dead-cell fraction: -0.0025
THZ1; 0.0003162 µM
  increase in dead-cell fraction: -0.0038
THZ1; 0.001 µM
  increase in dead-cell fraction: -0.0025
THZ1; 0.003162 µM
  increase in dead-cell fraction: -0.0009
THZ1; 0.01 µM
  increase in dead-cell fraction: -0.0024
THZ1; 0.03162 µM
  increase in dead-cell fraction: 0.0112
THZ1; 0.1 µM
  increase in dead-cell fraction: 0.0478
THZ1; 0.3162 µM
  increase in dead-cell fraction: 0.271
THZ1; 1 µM
  increase in dead-cell fraction: 0.766
LEE011/Ribociclib; 0.001 µM
  increase in dead-cell fraction: 0.0002
LEE011/Ribociclib; 0.003162 µM
  increase in dead-cell fraction: -0.0001
LEE011/Ribociclib; 0.01 µM
  increase in dead-cell fraction: 0.0014
LEE011/Ribociclib; 0.03162 µM
  increase in dead-cell fraction: -0.0047
LEE011/Ribociclib; 0.1 µM
  increase in dead-cell fraction: 0.0015
LEE011/Ribociclib; 0.3162 µM
  increase in dead-cell fraction: 0.0032
LEE011/Ribociclib; 1 µM
  increase in dead-cell fraction: 0.0064
LEE011/Ribociclib; 3.162 µM
  increase in dead-cell fraction: 0.0046
LEE011/Ribociclib; 10 µM
  increase in dead-cell fraction: 0.0171
YKL-5-124; 0.001 µM
  increase in dead-cell fraction: 0.0531
YKL-5-124; 0.003162 µM
  increase in dead-cell fraction: 0.0858
YKL-5-124; 0.01 µM
  increase in dead-cell fraction: 0.134
YKL-5-124; 0.03162 µM
  increase in dead-cell fraction: 0.202
YKL-5-124; 0.1 µM
  increase in dead-cell fraction: 0.196
YKL-5-124; 0.3162 µM
  increase in dead-cell fraction: 0.264
YKL-5-124; 1 µM
  increase in dead-cell fraction: 0.331
YKL-5-124; 3.162 µM
  increase in dead-cell fraction: 0.322
YKL-5-124; 10 µM
  increase in dead-cell fraction: 0.538
[2]; 0.0003162 µM
  increase in dead-cell fraction: 0.0005
[2]; 0.001 µM
  increase in dead-cell fraction: 0.0026
[2]; 0.003162 µM
  increase in dead-cell fraction: 0.0009
[2]; 0.01 µM
  increase in dead-cell fraction: -0.0004
[2]; 0.03162 µM
  increase in dead-cell fraction: 0.0094
[2]; 0.1 µM
  increase in dead-cell fraction: 0.0238
[2]; 0.3162 µM
  increase in dead-cell fraction: 0.0157
[2]; 1 µM
  increase in dead-cell fraction: 0.0237
[2]; 3.162 µM
  increase in dead-cell fraction: 0.0046
[3]; 0.0001 µM
  increase in dead-cell fraction: -0.0016
[3]; 0.0003162 µM
  increase in dead-cell fraction: -0.0077
[3]; 0.001 µM
  increase in dead-cell fraction: -0.0005
[3]; 0.003162 µM
  increase in dead-cell fraction: 0.0006
[3]; 0.01 µM
  increase in dead-cell fraction: 0.0355
[3]; 0.03162 µM
  increase in dead-cell fraction: 0.585
[3]; 0.1 µM
  increase in dead-cell fraction: 0.742
[3]; 0.3162 µM
  increase in dead-cell fraction: 0.728
[3]; 1 µM
  increase in dead-cell fraction: 0.713
[4]
  GR50, 72 h: 0.278 µM
Saracatinib/AZD0530
  GR50, 72 h: 1.73 µM
Luminespib/NVP-AUY922
  GR50, 72 h: 0.0109 µM
BSJ-01-175
  GR50, 72 h: 0.092 µM
THZ-P1-2
  GR50, 72 h: 4.69 µM
Ceritinib/LDK378
  GR50, 72 h: 2.14 µM
